In US20260123631A1, “NATURAL PORPHIN SALT AND USE THEREOF AS PLANT GROWTH REGULATOR AND PLANT IMMUNITY INDUCER” (NANJING BOSTEC BIOLOGICAL ENGINEERING CO., LTD, priority 2022, published 2026):

What was measured:
[1] = Stability of sample solutions in the dark/under light; assay type: physicochemical; conditions: under light 30,000 lux, salts in water, acidic reference in 30% to 50% ethanol
How it was run: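 Salt in water, or acidic reference in 30–50% aqueous ethanol, at about 10 ppm; UV absorbance scanned 200–800 nm at 0, 1, 2, 3 h, stored at 25° C dark or under 30,000 lux light. Relative content = max-peak absorbance at each time divided by 0 h value (100%).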

chlorophyllase = experiment: In vitro chlorophyllase-inhibiting activity test; assay type: biochemical, mung bean; conditions: substrate chlorophyll 120 ppm, sample 0.3 ppm to 30.0 ppm
Description: A chlorophyllase inhibition rate of a salt sample solution at each concentration was determined, and an IC50 value for a chlorophyllase inhibition activity of a salt sample was calculated.

[2] = test system: verticillium wilt in cotton; experiment: Spraying on cotton to control verticillium wilt; assay type: in vivo, cotton (Xinluzhong 66)
Description: Method: A total of five treatments were set, including: the sample in three concentrations; the positive control; and the blank control. An agent was sprayed once at each of a seedling stage (May 28) and a bud stage (June 28) of cotton, where a concentration was adjusted each time. Concentration changes of the sodium iron chlorophyllin and controls (first to fifth treatments) were as follows: [table] […] A three-point survey method was adopted for each treatment, and 100 plants were selected at each point. A control effect was surveyed.

cotton = experiment: Cotton yield in the verticillium wilt experiment; assay type: in vivo, cotton (Xinluzhong 66)
Description: Method: A total of five treatments were set, including: the sample in three concentrations; the positive control; and the blank control. An agent was sprayed once at each of a seedling stage (May 28) and a bud stage (June 28) of cotton, where a concentration was adjusted each time. Concentration changes of the sodium iron chlorophyllin and controls (first to fifth treatments) were as follows:
The harvesting was conducted on Nov. 15, 2020. […] The growth of cotton was first counted. Then, the harvesting was conducted, and a yield increase rate was calculated.

mung bean seedlings = experiment: Inducing adventitious roots from hypocotyls of mung bean; assay type: in vivo; conditions: day 7
Description: Test solution preparation: 8 mL of a commercially-available STANLEY universal hydroponic nutrient solution was taken and diluted with tap water to 3,200 mL (400-fold dilution) to produce a dilute nutrient solution. An appropriate amount of each of salt samples such as protoporphyrin disodium and potassium chlorhematin was weighed and prepared with the dilute nutrient solution into 0.010 ppm and 0.1 ppm sample test solutions, and 150 mL of each test solution was taken. 150 mL of the dilute nutrient solution was taken as a blank control. The test solutions and the control solution were placed in brown bottles, and the brown bottles were sealed with a black film. Mung bean seedlings with uniform growth and a seedling height of 7 cm to 8 cm were selected, and cut at 3 cm below a first true leaf node. 8 mung bean seedlings were inserted into each bottle (with roots removed) to make lower radicles soaked in a solution. Mung bean seedlings were treated at room temperature of 20° C. to 25° C. for 7 d in total, during which the solution was changed every 2 d. On day 2 to day 3 of the treatment, there was a significant difference. On day 7, the observation and determination were conducted. An average adventitious root number and an average total adventitious root length for each seedling were calculated, and results were shown in the following table: […]

[3] = Dilution and pH determination for sample solutions; assay type: physicochemical
Description: Method: 0.2500 g of a sample was accurately weighed and added to a 25 mL volumetric flask, dissolved with purified water, and diluted to a specified scale to prepare a 1.00% (10,000.0 ppm) initial solution. The initial solution was diluted with purified water in different ratios to prepare a series of solutions with a concentration of 1,000.0 ppm to 0.1 ppm. A pH value of each sample was determined three times.

tomato = experiment: Spraying on tomato to increase a yield; assay type: in vivo, tomato (Jinfan 1615); conditions: 0.05 ppm sprayed twice; for Yield increase rate: versus control
Description: During cultivation, flat planting, plastic mulching, seedling transplanting, and pressurized drip irrigation were adopted. On April 29, seedlings were transplanted at 2,600 seedlings/mu. An area of 20 mu was adopted for each of control and treatment groups. Each treatment region was sprayed with a sodium iron chlorophyllin solution at a concentration of 0.05 ppm twice in an early flowering stage (May 22, 2021) and a fruit setting stage (Jun. 5, 2021), respectively.
The harvesting was conducted on August 3. During the harvesting, 5 plants were continuously and randomly selected from each treatment for sampling statistics.

rice = experiment: Spraying on flooded rice; assay type: in vivo, rice (Nanjing 9108); conditions: 10.0 ppm solution, 1.2 L/mu (12.0 mg/mu), aerial application after 10 d waterlogging; moisture content 16.5%
Description: Waterlogging: On Jul. 10, 2021, an area of 20 mu was flooded. The floodwater receded on July 20. During the 10 d of waterlogging, the plant was totally submerged for nearly 4 d and was mostly submerged for nearly 6 d. After the floodwater receded, rice plants were weak and had yellow and drooping leaves.
Method: A 10.0 ppm sodium iron chlorophyllin solution was sprayed on 10 mu of land through aerial application at an average amount of 1.2 L/mu (sodium iron chlorophyllin amount: 12.0 mg/mu). 10 mu of land was taken as a blank control (0 mg/mu).

[4] = First treatment (0.167 ppm seedling stage, 0.500 ppm bud stage), first survey (June 28)
[5] = First treatment (0.167 ppm seedling stage, 0.500 ppm bud stage), second survey (August 10)
[6] = Second treatment (0.500 ppm seedling stage, 0.188 ppm bud stage), first survey (June 28)
[7] = Second treatment (0.500 ppm seedling stage, 0.188 ppm bud stage), second survey (August 10)
[8] = Third treatment (1.000 ppm seedling stage, 0.833 ppm bud stage), first survey (June 28)
[9] = Third treatment (1.000 ppm seedling stage, 0.833 ppm bud stage), second survey (August 10)
[10] = First treatment (0.167 / 0.500 ppm)
[11] = Second treatment (0.500 / 0.188 ppm)
[12] = Third treatment (1.000 / 0.833 ppm)

sodium iron chlorophyllin
Relative content ([1]; 1 h): 61.61%
Relative content ([1]; 2 h): 54.63%
Relative content ([1]; 3 h): 53.29%
IC50 for chlorophyllase inhibition activity (chlorophyllase): 5.41 ppm
Average diseased plant rate [2, 4]: 2.2%
Control effect [2, 4]: 35.29%
Average diseased plant rate [2, 5]: 5.6%
Control effect [2, 5]: 35.63%
Average diseased plant rate [2, 6]: 2.3%
Control effect [2, 6]: 32.35%
Average diseased plant rate [2, 7]: 4.8%
Control effect [2, 7]: 44.83%
Average diseased plant rate [2, 8]: 1.8%
Control effect [2, 8]: 47.06%
Average diseased plant rate [2, 9]: 4.1%
Control effect [2, 9]: 49.42%
Actual seed cotton yield per mu (cotton; [10]): 380.8 kg/mu
Average cotton boll weight (cotton; [10]): 5.2 g
Effective cotton boll number in 0.01 mu (cotton; [10]): 812.0
Yield increase rate (cotton; [10]): 7.94%
Actual seed cotton yield per mu (cotton; [11]): 374.9 kg/mu
Average cotton boll weight (cotton; [11]): 5.3 g
Effective cotton boll number in 0.01 mu (cotton; [11]): 786.1
Actual seed cotton yield per mu (cotton; [12]): 386.9 kg/mu
Average cotton boll weight (cotton; [12]): 5.3 g
Effective cotton boll number in 0.01 mu (cotton; [12]): 812.0
Yield increase rate (cotton; [12]): 9.66%
Adventitious root number (mung bean seedlings; 0.01 ppm): 14.51 root/seedling
Total adventitious root length (mung bean seedlings; 0.01 ppm): 20.06 cm/seedling
Adventitious root number (mung bean seedlings; 0.1 ppm): 13.67 root/seedling
Total adventitious root length (mung bean seedlings; 0.1 ppm): 19.40 cm/seedling
pH ([3]; 0.1 ppm in purified water): (6.68)
pH ([3]; 1.0 ppm in purified water): (6.95)
pH ([3]; 10.0 ppm in purified water): (7.14)
pH ([3]; 20.0 ppm in purified water): (7.52)
pH ([3]; 30.0 ppm in purified water): (7.63)
pH ([3]; 100.0 ppm in purified water): (8.18)
pH ([3]; 1000.0 ppm in purified water): (10.05)
pH ([3]; 10000.0 ppm in purified water): (10.87)
Average single-fruit weight (tomato): 51.3 g
Ear number/plant (tomato): 6.9
Green fruit number/plant (tomato): 13.8 fruit
Red fruit number/plant (tomato): 46.4 fruit
Yield per mu (tomato): 6188.8 kg/mu
increase of red-to-green fruit ratio compared with the control (tomato): 5.91%
red-to-green fruit ratio (tomato): 3.36
Yield increase rate (tomato): 27.15%
Yield increase rate (tomato; listed as sodium iron chlorophyllin): more than 27%
yield of the treatment field (rice): 720 kg/mu
